According to US20240287048A1, “SUBSTITUTED ACYL SULFONAMIDES FOR TREATING CANCER” (The Broad Institute, Inc., priority 2020, published 2024):

Experiments:
MDA-MB-436 cells = assay: Proliferation assay in MDA-MB-436 cells (negative control cell line); assay type: cell-based; settings: Homo sapiens, 144 h, Alamar Blue, read-out: MDA-MB-436 proliferation assay, EC50[M] (arithmetic mean)
Text: (§1) For compound characterization cell survival assays were routinely run in two cell lines. ZR-75-1 is a breast carcinoma cell line containing a focal KAT6A amplification and high KAT6A protein expression. Proliferation of this cell line is inhibited upon treatment with KAT6A inhibitors. As a negative control cell line MDA-MB-436 were used. These cells carry a […] deletion of the KAT6A gene, have a low KAT6A protein expression and are not growth inhibited upon treatment with KAT6A inhibitors.
(§2) For measurements cell lines were plated at the below indicated concentration per […] in 96-well plates in a humidified incubator at 37° C. and 5% CO2.
(§3) ZR-75-1 (ATCC, CRL-1500; breast carcinoma); 3000 cells per well; culture medium: RPMI 1640 (Biochrom #FG 1215) medium containing 2.5% FBS (Biochrom #S0615). LCLC-97TM1 (DSMZ, ACC 388; large cell lung carcinoma); 6000 cells per well; culture medium: RPMI 1640 (Biochrom #FG 1215) medium containing 2.5% FBS (Biochrom #S0615). MDA-MB-436 (CLS, 300278; breast adenocarcinoma); 3000 cells per well; culture medium: DMEM/Ham's F12 (Biochrom #FG 4815) medium containing 2.5% FBS (Biochrom #S0615).
(§4) Each sample was prepared as triplicate and rim wells were excluded. Plates were incubated at 37° C. and 5% CO2 for 144 h. Cell viability was measured by adding 10 μL of Alamar Blue Reagent (Invitrogen #DAL 1100) and plates were incubated for 2 h at 37° C. and 5% CO2. Fluorescence was measured at 590 nm wavelength with a Tecan Spark or Victor X3 MTP-Reader (PerkinElmer).

[1] = tested on: ESR1 transcription in MVLN cells; assay: Repression of ESR1 transcription, MVLN luciferase reporter assay; assay type: cell-based; settings: Homo sapiens, luciferase signal after 24 h, read-out: MVLN reporter assay, IC50[M] (arithmetic mean)
In short: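 MVLN cells stably carry an ER-responsive vitellogenin A2 element driving luciferase. After 24 h of compound treatment, luciferase was read in lysate as the measure of ERα transcription. Alamar Blue fluorescence (530/590 nm, 2 h) was read first to control for cell loss; samples were run in duplicate.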

KAT6B = target: T1, KAT6B (Homo sapiens, UniProt Q8WYB5); assay: Kat6b activity assay (TR-FRET, acetylation of biotinylated histone H4 peptide); assay type: biochemical; settings: recombinant human GST-tagged Kat6b (431-end), 30 mins at 22° C., read-out: KAT6B activity assay IC50 [mol/l] (arithmetic mean)
T1 construct: fused on or other part: N-terminal GST tag
T1 sequence (Q8WYB5 723-2073 limits assumed): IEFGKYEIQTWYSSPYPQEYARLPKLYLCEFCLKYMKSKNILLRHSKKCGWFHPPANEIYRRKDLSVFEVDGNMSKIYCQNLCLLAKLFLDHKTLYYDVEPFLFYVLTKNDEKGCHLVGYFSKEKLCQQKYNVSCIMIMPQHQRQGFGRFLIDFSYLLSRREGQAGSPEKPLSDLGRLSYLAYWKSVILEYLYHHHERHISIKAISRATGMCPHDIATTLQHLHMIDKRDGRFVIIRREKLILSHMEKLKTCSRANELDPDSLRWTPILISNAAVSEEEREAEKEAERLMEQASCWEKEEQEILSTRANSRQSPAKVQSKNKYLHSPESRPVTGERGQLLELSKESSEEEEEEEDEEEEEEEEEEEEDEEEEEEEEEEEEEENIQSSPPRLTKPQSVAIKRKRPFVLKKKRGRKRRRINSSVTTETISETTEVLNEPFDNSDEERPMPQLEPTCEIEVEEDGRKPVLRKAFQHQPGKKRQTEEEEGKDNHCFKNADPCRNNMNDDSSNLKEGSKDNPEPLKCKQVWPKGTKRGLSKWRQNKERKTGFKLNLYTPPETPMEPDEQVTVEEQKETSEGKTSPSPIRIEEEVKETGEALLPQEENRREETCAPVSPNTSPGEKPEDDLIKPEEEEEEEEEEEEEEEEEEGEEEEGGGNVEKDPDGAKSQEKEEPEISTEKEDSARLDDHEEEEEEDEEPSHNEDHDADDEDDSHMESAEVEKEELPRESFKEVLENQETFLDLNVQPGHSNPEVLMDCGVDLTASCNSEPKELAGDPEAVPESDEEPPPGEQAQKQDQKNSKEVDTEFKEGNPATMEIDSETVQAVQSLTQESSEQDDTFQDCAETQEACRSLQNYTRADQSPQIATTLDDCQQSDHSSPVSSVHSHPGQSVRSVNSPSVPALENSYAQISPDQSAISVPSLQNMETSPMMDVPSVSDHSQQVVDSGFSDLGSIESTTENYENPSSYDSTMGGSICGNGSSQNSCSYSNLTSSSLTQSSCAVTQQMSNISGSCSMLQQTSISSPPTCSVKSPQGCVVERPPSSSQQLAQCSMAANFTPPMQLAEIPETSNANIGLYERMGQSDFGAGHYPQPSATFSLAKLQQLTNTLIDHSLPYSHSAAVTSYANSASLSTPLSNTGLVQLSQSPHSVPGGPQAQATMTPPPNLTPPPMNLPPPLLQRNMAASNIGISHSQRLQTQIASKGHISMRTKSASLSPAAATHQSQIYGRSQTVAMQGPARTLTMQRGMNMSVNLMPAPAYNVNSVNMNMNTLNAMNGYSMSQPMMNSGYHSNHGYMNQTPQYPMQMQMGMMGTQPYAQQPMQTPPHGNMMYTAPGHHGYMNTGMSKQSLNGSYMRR
Text: Kat6b inhibitory activities of the compounds described in the present invention were quantified using a Fluorescence Resonance Energy Transfer (TR-FRET) assay which measures acetylation of a synthetic, biotinylated Histone-H4-derived peptide by the enzyme.
Recombinant human GST-tagged Kat6b protein (431-end, N-terminal GST-tag), purified from Baculovirus-infected insect cells (Sf9), was purchased from SignalChem (#K315-381BG). Histone H4 peptide (amino acids 1-24, […]-VLRD-K(Btn)-amide), which was used as substrate, was synthesized by Biosyntan GmbH, Berlin, Germany. Acetyl Coenzyme A was purchased from Sigma-Aldrich (#A-2056).
Kat6b was incubated for 30 mins at 22° C. in the presence of different concentrations of test substances (0 μM, and within the range 0.01-20 μM) in assay buffer [25 mM Tris/HCl pH 8, 1 mM EGTA, 2.5 mM Glutathion, 0.02% Chicken Albumin, 0.05% Pluronic F127, 25 mM NaCl, 500 nM H4 peptide and 600 nM Acetyl Coenzyme A].
The reaction was stopped by addition of Detection Solution (25 mM HEPES pH 7.5, 0.1% BSA, 22 nM SAXL665 (Cisbio #610SAXLE), 100 μM Anacardic Acid (Enzo #ALX-270-381), 1 nM Anti-Histone H4 (ACETYL K8) Antibody (ABCAM #AB15823), 0.5 nM Anti-Rabbit IgG Eu (Perkin Elmer #AD0083).
The fluorescence emission at 620 nm and 665 nm after excitation at 330-350 nm was measured in a TR-FRET measuring instrument, for instance a Rubystar or a Pherastar (both from BMG Lab Technologies, Offenburg, Germany) or a Viewlux (Perkin-Elmer). The ratio of the emission at 665 nm and at […] was used as indicator of the amount of acetylated peptide.
The resulting data (ratio) were normalized, taking 0% inhibition as the mean value of control measurements where all reagents were included. In this case 50 nl DMSO were used instead of compounds. […] IC50 values were determined by regression analysis based on a 4 parameter equation (minimum, maximum, ICM, Hill; Y=Max+(Min−Max)/(1+(X/ICso) Hill) using the Screener Software (Genedata).

ZR-75-1 cells = assay: Proliferation assay in ZR-75-1 cells; assay type: cell-based; settings: Homo sapiens, 144 h, Alamar Blue, read-out: ZR75-1 proliferation assay, EC50[M] (arithmetic mean)
Text: as §1, §2, §3, §4

KAT6A = target: T2, KAT6A (Homo sapiens, UniProt Q92794); assay: Kat6a activity assay (TR-FRET, acetylation of biotinylated histone H4 peptide); assay type: biochemical; settings: recombinant human His-tagged Kat6a (amino acids 194-810), 60 mins at 22° C., read-out: KAT6A-DPF/HAT domain IC50 [mol/l] (arithmetic mean)
T2 construct: Recombinant human His-tagged Kat6a protein (amino acids 194-810); His; made in house; host or cells: Baculovirus-infected Sf9 insect cells
T2 sequence (Q92794 194-810): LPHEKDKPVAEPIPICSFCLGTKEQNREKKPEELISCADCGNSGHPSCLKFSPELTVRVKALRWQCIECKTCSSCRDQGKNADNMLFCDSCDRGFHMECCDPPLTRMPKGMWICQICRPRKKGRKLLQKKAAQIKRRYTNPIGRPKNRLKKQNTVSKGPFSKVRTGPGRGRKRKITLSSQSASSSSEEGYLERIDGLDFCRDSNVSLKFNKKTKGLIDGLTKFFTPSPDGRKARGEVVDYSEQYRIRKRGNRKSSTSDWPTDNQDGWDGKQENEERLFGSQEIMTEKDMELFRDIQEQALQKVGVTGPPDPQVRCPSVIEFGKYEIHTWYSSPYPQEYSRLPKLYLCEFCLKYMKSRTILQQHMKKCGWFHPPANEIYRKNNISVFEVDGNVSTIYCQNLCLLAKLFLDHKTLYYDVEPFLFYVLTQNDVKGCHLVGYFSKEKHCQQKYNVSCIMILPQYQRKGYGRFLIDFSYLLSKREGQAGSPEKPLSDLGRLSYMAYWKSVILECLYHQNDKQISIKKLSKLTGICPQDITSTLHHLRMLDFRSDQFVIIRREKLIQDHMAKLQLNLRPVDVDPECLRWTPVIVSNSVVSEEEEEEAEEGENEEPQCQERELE
In short: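 His-tagged human Kat6a (aa 194-810, Sf9-expressed) with compound (0.01-20 μM) for 60 min at 22° C., pH 8 Tris buffer, 220 nM biotinylated H4 peptide (aa 1-24) and 600 nM acetyl-CoA. Acetyl-K8 detected by Eu-antibody/SA-XL665 TR-FRET (665/620 nm ratio); IC50 from 4-parameter fit.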

[2] = tested on: Salmonella tester strain TA100; assay: Bacterial reverse gene mutation test Ames MPF Penta I, TA100; assay type: cell-based
Text: (§5) The employed commercial assay Ames MPF Penta I comprises the histidine auxotrophic Salmonella tester strains TA98, TA100, TA1535, TA1537 and two tryptophan auxotrophic tester strains E. coli wp2 (E. coli wp2 [pKM101] and E. coli wp2 uvrA, combined exposure). These strains meet the requirements of the OECD guideline 471 for testing chemicals.
(§6) Bacterial strains were exposed to various concentrations of the test compounds in a histidine (His) or tryptophane (Trp) deficient medium. As recommended by ICH S2(R1) guideline, the test was conducted in two assay conditions, with and without addition of microsomal enzymes (S9 mix), taking the potential formation of DNA reactive metabolites via xenobiotic biotransformation into account.
(§7) The potential of the test compound to induce gene mutations is assessed by comparing the control with the test compounds treated bacterial cultures.

[3] = tested on: E. coli wp2 (E. coli wp2 [pKM101] and E. coli wp2 uvrA, combined exposure); assay: Bacterial reverse gene mutation test Ames MPF Penta I, E. coli wp2; assay type: cell-based
Text: as §5, §6, §7

[4] = tested on: Salmonella tester strain TA1535; assay: Bacterial reverse gene mutation test Ames MPF Penta I, TA1535; assay type: cell-based
Text: as §5, §6, §7

LCLC-97TM1 cells = assay: Proliferation assay in LCLC-97TM1 cells; assay type: cell-based; settings: Homo sapiens, 144 h, Alamar Blue, read-out: LCLC97TM1 proliferation assay, EC50[M] (arithmetic mean)
Protocol: as §2, §3, §4

[5] = tested on: Salmonella tester strain TA1537; assay: Bacterial reverse gene mutation test Ames MPF Penta I, TA1537; assay type: cell-based
Text: as §5, §6, §7

[6] = tested on: Salmonella tester strain TA98; assay: Bacterial reverse gene mutation test Ames MPF Penta I, TA98; assay type: cell-based
Text: as §5, §6, §7

| Compound | EC50 (MDA-MB-436 cells) [M] | IC50 [1] [M] | IC50 (KAT6B) [nM] | IC50 (KAT6A) [nM] | EC50 (ZR-75-1 cells) [M] | Result of the bacterial reverse gene mutation test Ames MPF Penta I, TA100 ([2]; with addition of S9 mix) | Result of the bacterial reverse gene mutation test Ames MPF Penta I, TA100 ([2]; without addition of S9 mix) | Result of the bacterial reverse gene mutation test Ames MPF Penta I, E. coli wp2 ([3]; with addition of S9 mix) | Result of the bacterial reverse gene mutation test Ames MPF Penta I, E. coli wp2 ([3]; without addition of S9 mix) | Result of the bacterial reverse gene mutation test Ames MPF Penta I, TA1535 ([4]; with addition of S9 mix) | Result of the bacterial reverse gene mutation test Ames MPF Penta I, TA1535 ([4]; without addition of S9 mix) | EC50 (LCLC-97TM1 cells) [M] | Result of the bacterial reverse gene mutation test Ames MPF Penta I, TA1537 ([5]; with addition of S9 mix) | Result of the bacterial reverse gene mutation test Ames MPF Penta I, TA1537 ([5]; without addition of S9 mix) | Result of the bacterial reverse gene mutation test Ames MPF Penta I, TA98 ([6]; with addition of S9 mix) | Result of the bacterial reverse gene mutation test Ames MPF Penta I, TA98 ([6]; without addition of S9 mix) |
| --- | --- | --- | --- | --- | --- | --- | --- | --- | --- | --- | --- | --- | --- | --- | --- | --- |
| CCOc1ccccc1S(=O)(=O)NC(=O)c1cc2c(F)cc(C3CC3)cc2o1 [Example 25, 6-Cyclopropyl-N-(2-ethoxybenzene-1-sulfonyl)-4-fluoro-1-benzofuran-2-carboxamide] | > 2e-05 | 5.42e-07 | 28.4 | – | 6.44e-07 | negative | negative | negative | negative | negative | negative | > 2e-05 | negative | negative | negative | negative |
| Cc1cc(C)c2cc(C(=O)NS(=O)(=O)c3cccc4ccc(C)nc34)oc2c1 [Example 21, 4,6-Dimethyl-N-(2-methylquinoline-8-sulfonyl)-1-benzofuran-2-carboxamide] | > 2e-05 | 1.17e-06 | 53.1 | 27.1 | 1.61e-06 | – | – | – | – | – | – | 3.47e-06 | – | – | – | – |

More lines, main results first:

| EC50 (MDA-MB-436 cells) [M] | IC50 [1] [M] | IC50 (KAT6B) [nM] | IC50 (KAT6A) [nM] | Compound | EC50 (ZR-75-1 cells) [M] | Result of the bacterial reverse gene mutation test Ames MPF Penta I, TA100 ([2]; with addition of S9 mix) | Result of the bacterial reverse gene mutation test Ames MPF Penta I, TA100 ([2]; without addition of S9 mix) | Result of the bacterial reverse gene mutation test Ames MPF Penta I, E. coli wp2 ([3]; with addition of S9 mix) | Result of the bacterial reverse gene mutation test Ames MPF Penta I, E. coli wp2 ([3]; without addition of S9 mix) | Result of the bacterial reverse gene mutation test Ames MPF Penta I, TA1535 ([4]; with addition of S9 mix) | Result of the bacterial reverse gene mutation test Ames MPF Penta I, TA1535 ([4]; without addition of S9 mix) | EC50 (LCLC-97TM1 cells) [M] | Result of the bacterial reverse gene mutation test Ames MPF Penta I, TA1537 ([5]; with addition of S9 mix) | Result of the bacterial reverse gene mutation test Ames MPF Penta I, TA1537 ([5]; without addition of S9 mix) | Result of the bacterial reverse gene mutation test Ames MPF Penta I, TA98 ([6]; with addition of S9 mix) | Result of the bacterial reverse gene mutation test Ames MPF Penta I, TA98 ([6]; without addition of S9 mix) |
| --- | --- | --- | --- | --- | --- | --- | --- | --- | --- | --- | --- | --- | --- | --- | --- | --- |
| > 2e-05 | 4.54e-06 | 114 | 86.5 | Cc1ccc(S(=O)(=O)NC(=O)c2cc3c(C)cc(C)cc3o2)c(-c2ccccc2)c1 [Example 7, 4,6-Dimethyl-N-(5-methyl[1,1′-biphenyl]-2-sulfonyl)-1-benzofuran-2-carboxamide] | > 2e-05 | – | – | – | – | – | – | – | – | – | – | – |
| > 2e-05 | 8.69e-06 | 1780 | 1350 | CC(C)c1ccc2cc(C(=O)NS(=O)(=O)c3ccccc3Cl)oc2c1 [Example 73, N-(2-chlorobenzenesulfonyl)-6-(propan-2-yl)-1-benzofuran-2-carboxamide] | 7.08e-06 | – | – | – | – | – | – | > 2e-05 | – | – | – | – |
| > 2e-05 | 3.02e-06 | 667 | 464 | CC(C)c1ccc2cc(C(=O)NS(=O)(=O)c3ccccc3-c3ccccc3)oc2c1 [Example 54, N-{[1,1′-Biphenyl]-2-sulfonyl}-6-(propan-2-yl)-1-benzofuran-2-carboxamide] | 5.75e-06 | – | – | – | – | – | – | > 2e-05 | – | – | – | – |
| > 2e-05 | 1.11e-05 | 2220 | 882 | Cc1ccc2cc(C(=O)NS(=O)(=O)c3ccccc3-c3ccccc3)oc2c1 [Example 2, N-([1,1′-biphenyl]-2-sulfonyl)-6-methyl-1-benzofuran-2-carboxamide] | > 2e-05 | – | – | – | – | – | – | – | – | – | – | – |
